Data from US8273773B2 (priority 2008, dated 2012).

What was measured:
[1] = system: HCV replicon cells (2209-23), genotype 1b replicon; assay: HCV Replicon Assay (Renilla luciferase reporter); assay type: cell-based, HCV genotype 1b replicon in human hepatoma Huh7 cells; details: Hepatitis C virus, 72 h, 2209-23 cells, three days incubation
[2] = molecular target: T1, HCV polymerase (NS5B570n-Con1) (Hepatitis C virus genotype 1b, UniProt Q9WMX2); assay: biochemical; parameters: species or system HCV Con1 strain;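 further: recombinant His-tagged enzyme from E. coli, radiolabeled nucleotide incorporation into acid-insoluble RNA read by scintillation after filtration, no-enzyme background subtracted, activity relative to positive control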
T1 construct: contains a 21 amino acid deletion at the C-terminus relative to the full-length HCV polymerase; 6-histidine (N); made in house; host or cells: E. coli strain BL21(DE) pLysS (pET17b)

[3] = IC50 HCV NS5B RNA Polymerase Assay (values with asterisk), values with asterisk: cIRES RNA template, 3 nM NS5B570n-Con1
[4] = IC50 HCV NS5B RNA Polymerase Assay, values without asterisk, 20 nM NS5B570n-Con1 enzyme, 20 nM cIRES RNA template

| SMILES | IC50 [1] | IC50 [2, 3] | IC50 [2, 4] | melting point |
| --- | --- | --- | --- | --- |
| COc1c(/C=C/c2ccc(NS(C)(=O)=O)cc2)cc(-c2ccc[nH]c2=O)cc1C1(Cl)CC1 [I-267] | 10.2 nM |  |  |  |
| COc1c(/C=C/c2ccc(NS(C)(=O)=O)cc2CO)cc(-c2cc(F)c[nH]c2=O)cc1C(C)(C)C [I-187, N-(4-{(E)-2-[3-tert-Butyl-5-(5-fluoro-2-oxo-1,2-dihydro-pyridin-3-yl)-2-methoxy-phenyl]-vinyl}-3-hydroxymethyl-phenyl)-methanesulfonamide] | 43.2 nM | 3 nM |  |  |
| COc1c(/C=C/c2ccc(NS(C)(=O)=O)cc2)cc(-c2ccc[nH]c2=O)cc1C1(C#N)CC1 [I-268, N-(4-{(E)-2-[3-(1-Cyano-cyclopropyl)-2-methoxy-5-(2-oxo-1,2-dihydro-pyridin-3-yl)-phenyl]-vinyl}-phenyl)-methanesulfonamide] | 22 nM |  |  |  |
| COc1c(/C=C/c2ccccc2C(C)=O)cc(-c2ccc[nH]c2=O)cc1C(C)(C)C [I-243, 3-{3-[(E)-2-(2-Acetyl-phenyl)-vinyl]-5-tert-butyl-4-methoxy-phenyl}-1H-pyridin-2-one] | 208 nM |  |  |  |
| COc1c(/C=C/c2ccc(NS(C)(=O)=O)cc2)cc(-c2ccc[nH]c2=O)cc1C1(C(F)F)CC1 [I-270] | 34.4 nM | 1 nM |  |  |
| COc1c(CC(CN2CCC(F)(F)C2)c2ccc(NS(C)(=O)=O)cc2)cc(-c2ccc[nH]c2=O)cc1C(C)(C)C (centres unmarked) [I-195] |  |  | 18 nM | 133 to 135 °C |
| COc1c(CCc2ccc(NS(C)(=O)=O)cc2)cc(-c2ccc[nH]c2=O)cc1C1(C)CC1 [I-108, N-(4-{2-[2-Methoxy-3-(1-methyl-cyclopropyl)-5-(2-oxo-1,2-dihydro-pyridin-3-yl)-phenyl]-ethyl}-phenyl)-methanesulfonamide] |  |  | 6 nM | 192 to 194 °C |
| COc1c(/C=C/c2ccc(NS(C)(=O)=O)cc2)cc(-c2ccc[nH]c2=O)cc1C(C)(C)C [I-126, N-(4-{(E)-2-[3-tert-Butyl-2-methoxy-5-(2-oxo-1,2-dihydro-pyridin-3-yl)-phenyl]-vinyl}-phenyl)-methanesulfonamide] | 6 nM |  |  |  |
| COc1c(NC(=O)c2ccc(N)cc2)cc(-c2ccc[nH]c2=O)cc1C(C)(C)C [I-72] |  |  | 34 nM | 190 to 193 °C |
| COc1cc(-c2ccc[nH]c2=O)cc(C(C)(C)C)c1OC [I-26] |  |  | 866 nM | 206.3 to 207.1 °C |
| COc1c(CCc2cnc(NS(C)(=O)=O)nc2)cc(-c2ccc[nH]c2=O)cc1C(C)(C)C [I-125] |  |  | 16 nM | 282 to 283 °C |
| COc1c(/C=C/c2ccc(NS(C)(=O)=O)cc2CO)cc(-c2ccc[nH]c2=O)cc1C(C)(C)C [I-205, N-(4-{(E)-2-[3-tert-Butyl-2-methoxy-5-(2-oxo-1,2-dihydro-pyridin-3-yl)-phenyl]-vinyl}-3-hydroxymethyl-phenyl)-methanesulfonamide] |  | 2 nM |  | 140 to 142 °C |
| Cc1cc(-c2cc(Cl)c[nH]c2=O)cc(C(C)(C)C)c1 [I-8] |  |  | 1960 nM | 232 to 233 °C |
| CC(C)(C)c1cc(/C=C/c2ccc(NS(C)(=O)=O)cc2)cc(-c2ccc[nH]c2=O)c1 [I-141, N-(4-{(E)-2-[3-tert-Butyl-5-(2-oxo-1,2-dihydro-pyridin-3-yl)-phenyl]-vinyl}-phenyl)-methanesulfonamide] |  |  | 26 nM | 260 to 262 °C |
| Cc1cc(C(C)(C)C)cc(-c2ccc[nH]c2=O)c1O [I-11] |  |  | 340 nM | 207 to 208.5 °C |
| CC(C)(C)c1cc(CCc2ccc(F)cc2)c(O)c(-c2ccc[nH]c2=O)c1 [I-20] |  |  | 378 nM | 178 to 179 °C |
| CC(C)(C)c1cc(Cl)c(O)c(-c2ccc[nH]c2=O)c1 [I-16] |  |  | 532 nM | 211.4 to 213.5 °C |
| COc1c(C(=O)c2cc(F)cc(F)c2)cc(-c2ccc[nH]c2=O)cc1C(C)(C)C [I-52] |  |  | 143 nM | 197.1 to 198.6 °C |
| CCOc1ccc(-c2ccc[nH]c2=O)cc1C(C)(C)C [I-5] |  |  | 4680 nM | 201 to 202 °C |
| COc1c(/C=C/c2ccccc2)cc(-c2ccc[nH]c2=O)cc1C(C)(C)C [I-144] |  |  | 11 nM | 183 to 185 °C |
| COc1c(CCc2ccc(NS(C)(=O)=O)cc2)cc(-c2ccc(C)[nH]c2=O)cc1C(C)(C)C [I-64, N-(4-{2-[3-tert-Butyl-2-methoxy-5-(6-methyl-2-oxo-1,2-dihydro-pyridin-3-yl)-phenyl]-ethyl}-phenyl)-methanesulfonamide] |  |  | 8 nM | 239 to 241 °C |
| COc1c(Cc2ccccc2)cc(-c2ccc[nH]c2=O)cc1C(C)(C)C [I-48] |  |  | 528 nM | 202.6 to 204.3 °C |

| SMILES | IC50 [1] | IC50 [2, 3] | IC50 [2, 4] | melting point |
| --- | --- | --- | --- | --- |
| COc1c(C(=O)Nc2ccc(CNS(C)(=O)=O)cc2)cc(-c2ccc[nH]c2=O)cc1C(C)(C)C [I-76] |  |  | 62 nM | 213 to 216 °C |
| COc1c(/C=C(\C)c2ccc(NS(C)(=O)=O)cc2)cc(-c2ccc[nH]c2=O)cc1C(C)(C)C [I-139, N-(4-{(E)-2-[3-tert-Butyl-2-methoxy-5-(2-oxo-1,2-dihydro-pyridin-3-yl)-phenyl]-1-methyl-vinyl}-phenyl)-methanesulfonamide] |  |  | 8 nM | 292 to 294 °C |
| COc1c(CCc2ccc(NS(C)(=O)=O)cn2)cc(-c2ccc[nH]c2=O)cc1C(C)(C)C [I-124] |  |  | 3 nM | 131 to 133 °C |
| COc1c(C(=O)c2cccc(NS(C)(=O)=O)c2)cc(-c2ccc[nH]c2=O)cc1C(C)(C)C [I-100, N-{3-[3-tert-Butyl-2-methoxy-5-(2-oxo-1,2-dihydro-pyridin-3-yl)-benzoyl]-phenyl}-methanesulfonamide] |  |  | 16 nM | 261 to 263 °C |
| CC(C)(C)c1cc(/C=C/c2ccc(NS(C)(=O)=O)cc2C#N)cc(-c2ccc[nH]c2=O)c1 [I-147, N-(4-{(E)-2-[3-tert-Butyl-5-(2-oxo-1,2-dihydro-pyridin-3-yl)-phenyl]-vinyl}-3-cyano-phenyl)-methanesulfonamide] |  |  | 2 nM | > 300 °C |
| COc1c(NC(=O)c2ccc(NS(C)(=O)=O)cc2)cc(-c2cc(F)c[nH]c2=O)cc1C(C)(C)C [I-81] |  |  | 22 nM | 272 to 274 °C |
| CCc1cc(-c2ccc[nH]c2=O)cc(C(C)(C)C)c1OC [I-30] |  |  | 728 nM | 213 to 214 °C |
| COc1c(/C=C/c2ccc(NS(C)(=O)=O)cc2)cc(-c2cc(F)c[nH]c2=O)cc1C(C)(C)C [I-142, N-(4-{(E)-2-[3-tert-Butyl-5-(5-fluoro-2-oxo-1,2-dihydro-pyridin-3-yl)-2-methoxy-phenyl]-vinyl}-phenyl)-methanesulfonamide] | 78 nM |  |  |  |
| COc1c(C(=O)c2ccc(O)cc2)cc(-c2ccc[nH]c2=O)cc1C(C)(C)C [I-55] |  |  | 59 nM | 185 to 187 °C |
| CC(C)(C)c1cc(CCc2ccc(NS(C)(=O)=O)cc2)c(OCCO)c(-c2ccc[nH]c2=O)c1 [I-118, N-(4-{2-[5-tert-Butyl-2-(2-hydroxy-ethoxy)-3-(2-oxo-1,2-dihydro-pyridin-3-yl)-phenyl]-ethyl}-phenyl)-methanesulfonamide] |  |  | 15 nM | 223 to 225 °C |
| COc1c(C(=O)c2sccc2C)cc(-c2ccc[nH]c2=O)cc1C(C)(C)C [I-57] |  |  | 61 nM | 123.3 to 125.5 °C |
| COc1c(C(=O)NC2CC2)cc(-c2ccc[nH]c2=O)cc1C(C)(C)C [I-19] |  |  | 1620 nM | 223 to 224 °C |
| COc1c(C(=O)Nc2ccc(NS(C)(=O)=O)cc2C)cc(-c2ccc[nH]c2=O)cc1C(C)(C)C [I-69, 3-tert-Butyl-N-(4-methanesulfonylamino-2-methyl-phenyl)-2-methoxy-5-(2-oxo-1,2-dihydro-pyridin-3-yl)-benzamide] |  |  | 13 nM | 278 to 280 °C |
| COc1c(NC(=O)c2ccc(N)c(F)c2)cc(-c2ccc[nH]c2=O)cc1C(C)(C)C [I-120] |  |  | 3 nM | 283 to 285 °C |
| COc1c(C(=O)Nc2ccccc2)cc(-c2ccc[nH]c2=O)cc1C(C)(C)C [I-68] |  |  | 107 nM | 288 to 290 °C |
| CC(C)(C)c1ccc(O)c(-c2ccc[nH]c2=O)c1 [I-2] |  |  | 3580 nM | 211 to 212 °C |
| Cc1cc(-c2cc(C)c[nH]c2=O)cc(C(C)(C)C)c1 [I-7] |  |  | 3260 nM | 212 to 213 °C |
| CC(C)(C)c1cc(CCc2ccc(NS(C)(=O)=O)cc2)cc(-c2cc(F)c[nH]c2=O)c1 [I-94] |  |  | 10 nM | 191 to 193 °C |
| COc1c(C(=O)c2cccc(C(N)=O)c2)cc(-c2ccc[nH]c2=O)cc1C(C)(C)C [I-63] |  |  | 10 nM | 150 to 160 °C |
| COc1c(CCc2ccc(NS(C)(=O)=O)cc2F)cc(-c2ccc[nH]c2=O)cc1C(C)(C)C [I-102, N-(4-{2-[3-tert-Butyl-2-methoxy-5-(2-oxo-1,2-dihydro-pyridin-3-yl)-phenyl]-ethyl}-3-fluoro-phenyl)-methanesulfonamide] |  |  | 8 nM | 120 to 122 °C |
| CC(C)(C)c1cc(-c2ccc[nH]c2=O)cc(NC(=O)c2ccc(NS(C)(=O)=O)cc2)c1F [I-73, N-[3-tert-Butyl-2-fluoro-5-(2-oxo-1,2-dihydro-pyridin-3-yl)-phenyl]-4-methanesulfonylamino-benzamide] |  |  | 54 nM | 286 to 288 °C |
| COc1c(C(=O)c2cccc(CN)c2)cc(-c2ccc[nH]c2=O)cc1C(C)(C)C [I-106] |  |  | 24 nM | 110 to 115 °C |
